Assay [1] is described as follows: Cytotoxicity against human A172 cells at 10 uM after 48 hrs by SRB assay. The note with it: A 172, 48 h. The format is functional.
Assay [2] relates to MCF7. As to the kind of experiment: Induction of apoptosis in human MCF7 cells assessed as early apoptotic cells after 24 hrs using 7-AAD/annexin-V staining by flow cytometry analysis. Format: functional.
Assay [3] relates to MCF7. As to the kind of experiment: Cytotoxicity against human MCF7 cells at 10 uM after 48 hrs by SRB assay. Format: functional. The note with it: MCF7, 48 h.
In assay [4] the test system is DU-145. As to the kind of experiment: Cytotoxicity against human DU145 cells at 10 uM after 48 hrs by SRB assay. The note with it: DU-145, 48 h. The format is functional.
Assay [5] is described as follows: Cytotoxicity against human DLD1 cells at 10 uM after 48 hrs by SRB assay. The format is functional. The note with it: DLD-1, 48 h.
The test system of assay [6] is 4T1. As to the kind of experiment: Cytotoxicity against mouse 4T1 cells after 48 hrs by SRB assay. Format: functional, cell-based.
In assay [7] the test system is MCF7. As to the kind of experiment: Induction of apoptosis in human MCF7 cells assessed as DNA fragmentation at 10 uM after 24 hrs […] by APOBrdU TUNNEL assay. The format is functional, cell-based.
Assay [8] in a line: Cytotoxicity against human A172 cells after 48 hrs by SRB assay. The format is functional, cell-based. The note with it: A 172, 48 h.
Assay [9] has as its system MCF7. As to the kind of experiment: Induction of apoptosis in human MCF7 cells assessed as viable cells after 24 hrs using 7-AAD/annexin-V staining by flow cytometry analysis. The format is functional.
The subject of assay [10] is MDA-MB-231. As to the kind of experiment: Cytotoxicity against human MDA-MB-231 cells after 48 hrs by SRB assay. The format is functional, cell-based.
The subject of assay [11] is SK-OV-3. As to the kind of experiment: Cytotoxicity against human SKOV3 cells after 48 hrs by SRB assay. Format: functional, cell-based. The note with it: SK-OV-3, 48 h.
Assay [12] has as its system A549. Put plainly: Cytotoxicity against human A549 cells at 10 uM after 48 hrs by SRB assay. The format is functional. The note with it: A549, 48 h.
Assay [13] relates to A549. As to the kind of experiment: Cytotoxicity against human A549 cells after 48 hrs by SRB assay. The format is functional, cell-based. The note with it: A549, 48 h.
Assay [14] is described as follows: Cytotoxicity against human MIAPaCa2 cells at 10 uM after 48 hrs by SRB assay. Format: functional. The note with it: MIA PaCa-2, 48 h.
Assay [15] deals with MCF7. As to the kind of experiment: Induction of apoptosis in human MCF7 cells assessed as late apoptotic cells after 24 hrs using 7-AAD/annexin-V staining by flow cytometry analysis. The format is functional.
The subject of assay [16] is PC-3. As to the kind of experiment: Cytotoxicity against human PC3 cells after 48 hrs by SRB assay. The note with it: PC-3, 48 h. The format is functional, cell-based.
The test system of assay [17] is MCF7. Put plainly: Induction of apoptosis in human MCF7 cells assessed as necrotic cells after 24 hrs using 7-AAD/annexin-V staining by flow cytometry analysis. The format is functional.
The test system of assay [18] is SK-OV-3. As to the kind of experiment: Cytotoxicity against human SKOV3 cells at 10 uM after 48 hrs by SRB assay. The format is functional. The note with it: SK-OV-3, 48 h.
Assay [19] concerns Vero. Put plainly: Cytotoxicity against African green monkey Vero cells after 48 hrs by SRB assay. Format: cell-based. The note with it: Chlorocebus sabaeus.
Assay [20] is described as follows: Cytotoxicity against human PLC/PRF/5 cells at 10 uM after 48 hrs by SRB assay. The format is functional. The note with it: PLC-PRF-5, 48 h.
For assay [21], the system named is MCF7. Put plainly: Cytotoxicity against human MCF7 cells after 48 hrs by SRB assay. Format: functional, cell-based.

Activity calls are given as the source filed them. The calls are words filed in the database; no cut-off is given here.

For `COc1ccc(C(=O)/C=C/c2nccc3c2[nH]c2ccccc23)cc1OC`, the inhibition at 10 µM came to 74.3% in [1]; 94.5% in assay [3]; 71.9% in assay [4]; 88.1% in [5]; 84.7% in [12]; 87.5% in assay [14]. Moreover, the values for the inhibition at 10 µM in assay [18] and in [20] were 41.6% and 78.3%, respectively. The Activity in assay [2] was 20.4%; in [6], “Dose-dependent effect”; in [9] it was 37%; in assay [10], “Dose-dependent effect”; in assay [15], 39.5%; in assay [17] it was 3.12%. Further, the Activity entry in [21] is “Dose-dependent effect”. For the same compound, the outcome in [7] was Active. For the same compound, the IC50 was 3.33 µM in assay [8]; greater than 10 µM in assay [11]; 2.31 µM in [13]; 5.99 µM in assay [16]; greater than 10 µM in [19]; 2.25 µM in [21] (MCF7, 48 h).
